According to US9771341B2, “Piperazine carbamates and methods of making and using same” (Abide Therapeutics, Inc., priority 2015, dated 2017):

What was measured:
[1] = molecular target: T1, MAGL (Mus musculus, UniProt O35678); assay: In vitro competitive activity-based protein profiling (mouse), MAGL; type: biochemical; settings: for inhibition at 1 µM: mouse proteome, in vitro, read-out: % Inhibition at 1 μM MAGL; for IC50: mouse brain membrane fraction or cell lysates, 30 min preincubation at 37° C, FP-Rh probe
T1 construct: Proteomes (mouse brain membrane fraction or cell lysates); from tissue; host or cells: mouse brain membrane fraction (or unspecified cell lysates)
T1 sequence (O35678 1-303): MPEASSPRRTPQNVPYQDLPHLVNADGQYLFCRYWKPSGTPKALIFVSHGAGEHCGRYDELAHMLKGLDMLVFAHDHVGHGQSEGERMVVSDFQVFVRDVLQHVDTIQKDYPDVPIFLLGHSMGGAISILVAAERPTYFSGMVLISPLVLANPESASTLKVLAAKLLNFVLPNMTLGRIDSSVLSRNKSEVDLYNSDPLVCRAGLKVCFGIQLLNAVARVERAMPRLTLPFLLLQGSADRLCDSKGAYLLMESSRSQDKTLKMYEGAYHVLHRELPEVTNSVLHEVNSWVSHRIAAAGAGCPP
Experimental: (§1) In Vitro Competitive Activity-Based Protein Profiling (Mouse).
(§2) Proteomes (mouse brain membrane fraction or cell lysates) (50 μL, 1.0 mg/mL total protein concentration) were preincubated with varying concentrations of inhibitors at 37° C. After 30 min, FP-Rh (1.0 μL, 50 μM in DMSO) was added and the mixture was incubated for another 30 min at 37° C. Reactions were quenched with SDS loading buffer (50 μL-4×) and run on SDS-PAGE.

[2] = molecular target: T2, FAAH (Mus musculus, UniProt O08914); assay: In vitro competitive activity-based protein profiling (mouse), FAAH; type: biochemical; settings: for inhibition at 1 µM: mouse proteome, in vitro; for IC50: mouse brain membrane fraction or cell lysates, 30 min preincubation at 37° C, FP-Rh probe
T2 construct: Proteomes (mouse brain membrane fraction or cell lysates); from tissue; host or cells: mouse brain membrane fraction (or unspecified cell lysates)
T2 sequence (O08914 1-579): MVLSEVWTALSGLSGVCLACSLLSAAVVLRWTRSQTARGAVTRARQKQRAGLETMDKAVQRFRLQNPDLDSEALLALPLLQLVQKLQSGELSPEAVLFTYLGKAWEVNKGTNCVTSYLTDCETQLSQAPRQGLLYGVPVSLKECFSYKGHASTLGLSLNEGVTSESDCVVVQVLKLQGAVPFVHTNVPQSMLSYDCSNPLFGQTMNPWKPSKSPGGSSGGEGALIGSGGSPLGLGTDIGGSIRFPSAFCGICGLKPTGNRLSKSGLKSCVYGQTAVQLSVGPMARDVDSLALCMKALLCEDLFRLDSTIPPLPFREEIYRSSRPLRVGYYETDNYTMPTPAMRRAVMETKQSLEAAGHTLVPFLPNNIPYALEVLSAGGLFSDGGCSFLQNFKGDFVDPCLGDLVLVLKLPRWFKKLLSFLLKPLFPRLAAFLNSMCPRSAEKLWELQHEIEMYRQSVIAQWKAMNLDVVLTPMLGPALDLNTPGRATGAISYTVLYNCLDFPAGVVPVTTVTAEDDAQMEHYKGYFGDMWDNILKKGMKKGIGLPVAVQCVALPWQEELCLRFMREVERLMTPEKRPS
Summary of the method: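 Competitive ABPP: inhibitor exposure (30 min, 37° C) of mouse brain membrane or lysate proteome at 1.0 mg/mL, then labelling with FP-Rh for another 30 min. Activity quantified by in-gel fluorescence of FAAH bands after SDS-PAGE.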

[3] = molecular target: T3, ABHD6 (Mus musculus, UniProt Q8R2Y0); assay: In vitro competitive activity-based protein profiling (mouse), ABHD6; type: biochemical; settings: for inhibition at 1 µM: mouse proteome, in vitro, read-out: % Inhibition at 1 μM ABHD6; for IC50: mouse brain membrane fraction or cell lysates, 30 min preincubation at 37° C, FP-Rh probe
T3 construct: Proteomes (mouse brain membrane fraction or cell lysates); from tissue; host or cells: mouse brain membrane fraction (or unspecified cell lysates)
T3 sequence (Q8R2Y0 1-336): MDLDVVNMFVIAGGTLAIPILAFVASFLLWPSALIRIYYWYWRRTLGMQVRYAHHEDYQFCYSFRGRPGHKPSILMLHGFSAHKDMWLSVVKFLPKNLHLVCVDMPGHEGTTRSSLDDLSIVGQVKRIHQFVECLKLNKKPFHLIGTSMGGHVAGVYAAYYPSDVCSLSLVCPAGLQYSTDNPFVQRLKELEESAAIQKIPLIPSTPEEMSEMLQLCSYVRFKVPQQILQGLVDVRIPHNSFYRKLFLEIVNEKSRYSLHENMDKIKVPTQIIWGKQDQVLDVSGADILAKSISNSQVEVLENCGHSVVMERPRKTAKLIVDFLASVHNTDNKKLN
Experimental: as §1, §2

[4] = molecular target: T1, MAGL; assay: Mouse brain proteomes from inhibitor treated mice, MAGL; type: in vivo; settings: 5 mg/kg oral gavage, C57Bl/6J mice, brain proteome 4 h after administration
Experimental: (§3) Preparation of Mouse Brain Proteomes from Inhibitor Treated Mice.
(§4) Inhibitors were administered to wild-type C57Bl/6J by oral gavage in a vehicle of polyethylene glycol.

[5] = molecular target: T2, FAAH; assay: Mouse brain proteomes from inhibitor treated mice, FAAH; type: in vivo; settings: 5 mg/kg oral gavage, C57Bl/6J mice, brain proteome 4 h after administration
Experimental: as §3
Inhibitors were administered to wild-type C57Bl/6J by oral gavage in a vehicle of polyethylene glycol. Each animal was sacrificed 4 h following administration and brain proteomes were prepared and analyzed according to previously established methods (See Niphakis, M. J., et al. (2011) ACS Chem. Neurosci. and Long, J. Z., et al. Nat. Chem. Biol. 5:37-44)

[6] = molecular target: T3, ABHD6; assay: Mouse brain proteomes from inhibitor treated mice, ABHD6; type: in vivo; settings: 5 mg/kg oral gavage, C57Bl/6J mice, brain proteome 4 h after administration
Experimental: as §3, §4

| SMILES | inhibition at 1 µM [1] | IC50 [1] | inhibition at 1 µM [2] | IC50 [2] | inhibition at 1 µM [3] | IC50 [3] | inhibition at 5 mg/kg [4] | inhibition at 5 mg/kg [5] | inhibition at 5 mg/kg [6] |
| --- | --- | --- | --- | --- | --- | --- | --- | --- | --- |
| O=C(OC(C(F)(F)F)C(F)(F)F)N1CCN(Cc2cccc(Cl)c2N2CC3CCC(C2)O3)CC1 [Example 57, 1,1,1,3,3,3-hexafluoropropan-2-yl 4-(2-(8-oxa-3-azabicyclo[3.2.1]octan-3-yl)-3-chlorobenzyl)piperazine-1-carboxylate] | > 75% | < 100 nM | < 25% | > 1000 nM | < 25% | > 1000 nM | > 75% | < 25% | < 25% |
| O=C(OC(C(F)(F)F)C(F)(F)F)N1CCN(Cc2ccc(C(F)(F)F)cc2N2CCC(CO)CC2)CC1 [Example 74, 1,1,1,3,3,3-hexafluoropropan-2-yl 4-(2-(4-(hydroxymethyl)piperidin-1-yl)-4-(trifluoromethyl)benzyl)piperazine-1-carboxylate] | > 75% | < 100 nM | < 25% | > 1000 nM | < 25% | > 1000 nM | 25 to 75% | < 25% | < 25% |
| O=C(OC(C(F)(F)F)C(F)(F)F)N1CCN(Cc2cccc(OC(F)(F)F)c2N2CCC(N3CCCC3)CC2)CC1 [Example 32, 1,1,1,3,3,3-hexafluoropropan-2-yl 4-(2-(4-(pyrrolidin-1-yl)piperidin-1-yl)-3-(trifluoromethoxy)benzyl)piperazine-1-carboxylate] | > 75% | < 100 nM | < 25% | > 1000 nM | < 25% | > 1000 nM | < 25% | < 25% | < 25% |

Next, values leading:

| inhibition at 1 µM [1] | IC50 [1] | inhibition at 1 µM [2] | IC50 [2] | inhibition at 1 µM [3] | IC50 [3] | inhibition at 5 mg/kg [4] | inhibition at 5 mg/kg [5] | inhibition at 5 mg/kg [6] | SMILES |
| --- | --- | --- | --- | --- | --- | --- | --- | --- | --- |
| > 75% | < 100 nM | < 25% | > 1000 nM | < 25% | > 1000 nM | > 75% | < 25% | < 25% | Cc1cccc(CN2CCN(C(=O)OC(C(F)(F)F)C(F)(F)F)CC2)c1N1CCC(NS(C)(=O)=O)CC1 [Example 51, 1,1,1,3,3,3-hexafluoropropan-2-yl 4-(3-methyl-2-(4-(methylsulfonamido)piperidin-1-yl)benzyl)piperazine-1-carboxylate] |
| > 75% | < 100 nM | < 25% | > 1000 nM | 25 to 75% | > 1000 nM | > 75% | < 25% | 25 to 75% | CS(=O)(=O)N[C@@H]1CCN(c2cc(Cl)ccc2CN2CCN(C(=O)OC(C(F)(F)F)C(F)(F)F)CC2)C1 [Example 39, 1,1,1,3,3,3-hexafluoropropan-2-yl (R)-4-(4-chloro-2-(3-(methylsulfonamido)pyrrolidin-1-yl)benzyl)piperazine-1-carboxylate] |
| > 75% | < 100 nM | < 25% | > 1000 nM | < 25% | > 1000 nM | > 75% | < 25% | < 25% | CS(=O)(=O)N[C@H]1CCN(c2cc(C(F)(F)F)ccc2CN2CCN(C(=O)OC(C(F)(F)F)C(F)(F)F)CC2)C1 [Example 61, 1,1,1,3,3,3-hexafluoropropan-2-yl (S)-4-(2-(3-(methylsulfonamido)pyrrolidin-1-yl)-4-(trifluoromethyl)benzyl)piperazine-1-carboxylate] |
